Values after ≈ are worked out from the molar mass of the structure shown. Marks after values point to notes of the source that are not given here.
Tests used:
[1] = tested on: Staphylococcus aureus; assay: Minimum inhibitory concentration, gram positive bacteria; type: cell-based
[2] = tested on: Bacillus subtilis; assay: as above; type: cell-based
[3] = tested on: Escheria Coli; assay: Minimum inhibitory concentration, gram negative bacteria; type: cell-based
[4] = tested on: Bordetella bronchispetica; assay: as above; type: cell-based
[5] = tested on: Streptococcus pyogenes; conditions: gram positive; from J. Med. Chem., 44, 4137-4156 (2001); cited from earlier work
[6] = tested on: Streptococcus pneumonia; conditions: gram positive; from J. Med. Chem., 44, 4137-4156 (2001); cited from earlier work
[7] = tested on: Clostridium perfringens; conditions: gram positive; from J. F. Presscott, Antimicrobial Therapy in Veterinary Medicine, 3rd ed.; cited from earlier work
[8] = tested on: Enterococcus faecalis; conditions: gram positive; from J. Clin. Micro., 26: 11, 2415-2420 (1988); cited from earlier work
[9] = tested on: Pasteurella multocida; conditions: gram negative; from J. F. Presscott, Antimicrobial Therapy in Veterinary Medicine, 3rd ed.; cited from earlier work
[10] = tested on: Bacteroides fragilis; conditions: gram negative; from J. F. Presscott, Antimicrobial Therapy in Veterinary Medicine, 3rd ed.; cited from earlier work
[11] = tested on: Streptococcus pyogenes; assay: Minimum inhibitory concentration, gram positive bacteria; type: cell-based
[12] = tested on: Streptococcus pneumonia; assay: as above; type: cell-based; conditions: Streptococcus pneumoniae
[13] = tested on: Clostridium perfringens; assay: microbe, parasite or virus in culture; type: cell-based; conditions: read-out: Minimum Inhibitory Concentration Clostridium perfringens
[14] = tested on: Enterococcus faecalis; assay: Minimum inhibitory concentration, gram positive bacteria; type: cell-based
[15] = tested on: Pasteurella multocida; assay: Minimum inhibitory concentration, gram negative bacteria; type: cell-based
[16] = tested on: Klebsiella Pneumonia; assay: as above; type: cell-based; conditions: Klebsiella pneumoniae
[17] = tested on: Bacteroides fragilis; assay: as above; type: cell-based

| Compound | MIC [1] | MIC [2] | MIC [3] | MIC [4] | Minimum Inhibitory Concentration Streptococcus pyogenes [5] | Minimum Inhibitory Concentration Streptococcus pneumonia [6] | Minimum Inhibitory Concentration Clostridium perfringens [7] | Minimum Inhibitory Concentration Enterococcus faecalis [8] | Minimum Inhibitory Concentration Pasteurella multocida [9] | Minimum Inhibitory Concentration Bacteroides fragilis [10] | MIC [11] | MIC [12] | MIC [13] | MIC [14] | MIC [15] | MIC [16] | MIC [17] |
| --- | --- | --- | --- | --- | --- | --- | --- | --- | --- | --- | --- | --- | --- | --- | --- | --- | --- |
| CC[C@H]1OC(=O)[C@H](C)[C@@H](O[C@H]2C[C@@](C)(OC)[C@@H](O)[C@H](C)O2)[C@H](C)[C@@H](O[C@@H]2O[C@H](C)C[C@H](N(C)C)[C@H]2O)[C@](C)(OC)C[C@@H](C)C(=O)[C@H](C)[C@@H](O)[C@]1(C)O [Clarithromycin] | < 0.25 µg/mL | < 0.25 µg/mL | 32 µg/mL (≈ 42.8 µM) | 4 µg/mL (≈ 5.35 µM) | 0.06^(1) μg/mL | 0.03^(1) μg/mL | 4* μg/mL | 2.7^(3) μg/mL | 2* μg/mL | 16* μg/mL | – | – | – | – | – | – | – |
| CC[C@H]1OC(=O)[C@H](C)[C@@H](O[C@H]2C[C@@](C)(OC)[C@@H](O)[C@H](C)O2)[C@H](C)[C@@H](O[C@@H]2O[C@H](C)C[C@H](N(C)C)[C@H]2O)[C@](C)(O)C[C@@H](C)C(=O)[C@H](C)[C@@H](O)[C@]1(C)O [Erythromycin] | 0.25 µg/mL (≈ 0.341 µM) | 0.25 µg/mL (≈ 0.341 µM) | 32 µg/mL (≈ 43.6 µM) | 4 µg/mL (≈ 5.45 µM) | 0.06^(1) μg/mL | 0.06^(1) μg/mL | 4* μg/mL | 2.7^(3) μg/mL | 4* μg/mL | >8* μg/mL | – | – | – | – | – | – | – |
| CC[C@H]1OC(=O)[C@H](C)[C@@H](OC2CC(C)(OC)C(OCCCN(C)C)C(C)O2)[C@H](C)[C@@H](OC2OC(C)CC(N(C)C)C2O)[C@](C)(OC)C[C@@H](C)C(=O)[C@H](C)[C@@H](O)[C@]1(C)O (stereo partly drawn) [Formula 2, 4″-DMAP-Clarithromycin ether] | 0.25 µg/mL | 0.25 µg/mL | 32 µg/mL | 4 µg/mL | – | – | – | – | – | – | 0.25 µg/mL | 0.25 µg/mL | 2 µg/mL | 8 µg/mL | 1 µg/mL | 32 µg/mL | 2 µg/mL |
| CC[C@H]1OC(=O)[C@H](C)[C@@H](O[C@H]2C[C@@](C)(OC)[C@@H](O)[C@H](C)O2)[C@H](C)[C@@H](O[C@@H]2O[C@H](C)C[C@H](N(C)C)[C@H]2O)[C@](C)(O)C[C@@H](C)/C(=N\OCOCCOC)[C@H](C)[C@@H](O)[C@]1(C)O [Roxithromycin] | 0.25 µg/mL (≈ 0.299 µM) | 0.25 µg/mL (≈ 0.299 µM) | 32 µg/mL (≈ 38.2 µM) | 1 µg/mL (≈ 1.19 µM) | – | – | – | – | – | – | 0.25 µg/mL (≈ 0.299 µM) | 0.25 µg/mL (≈ 0.299 µM) | 2 µg/mL (≈ 2.39 µM) | 8 µg/mL (≈ 9.56 µM) | 1 µg/mL (≈ 1.19 µM) | 32 µg/mL (≈ 38.2 µM) | < 2 µg/mL |

From patent publication US20110071096A1, “Macrolides Having Antibiotic Activity” (IDEXX Laboratories, Inc., priority 2009, published 2011)
